Reference: a melting point compilation (Tetko et al.; mined from patent text by program, amines drawn as free bases though some values may be those of a salt)

| SMILES | melting point [°C] |
| --- | --- |
| COC(=O)c1cc(OCCCOc2ccccc2-c2ccccc2)cc(OCCCOc2ccccc2-c2ccccc2)c1 | 77 to 79 |
| CCOC(=O)COc1ccc(C(=O)Nc2ccccc2Sc2cccc(O)c2-c2nnn[nH]2)cc1 | 155 to 157 |
| O=C(O)C=Cc1ccc(OCCC(c2ccccc2)(c2ccccc2)c2ccccc2)cc1 | 207 to 209 |
| CC(C)(C)OC(=O)N1CCC(c2ccc(C(=O)N3CCc4cc(S(C)(=O)=O)ccc43)nc2)CC1 | 202 to 205 |
| CC(C)(C)OC(=O)c1nn(-c2ccc(Cl)cc2Cl)c(-c2ccc(Cl)cc2)c1CBr | 139 |
| COc1cc(OC)c(-c2nc3ncccc3[nH]2)s1 | 93 to 96 |
| CCOc1ccc(-c2nc(-c3cccc(C(C#N)C(=O)OC)n3)cs2)cc1OCC (stereo unspecified) | 240 to 242 |
| Fc1ccc(F)c(C(Sc2ccc(Cl)cc2)c2ccc(C3OCCO3)cn2)c1 (stereo unspecified) | 70 to 73 |
| CS(=O)(=O)c1ccc(Oc2cc(OC3CCOCC3)c3[nH]c(C4=NCC(CC(=O)NCCO)S4)cc3c2)cn1 (stereo unspecified) | 157 to 158 |
| N#Cc1cc(NCc2ccncc2)n(-c2c(Cl)cc(C(F)(F)F)cc2Cl)n1 | > 300 |
| CCOC(=O)Cc1c[nH]c2cc(-c3ccccc3)nn2c1=O | 245 to 250 |
| Cc1c(C(=O)c2ccccc2F)n(N2C(=O)c3ccccc3C2=O)c2ccccc12 | 197 to 199 |
| O=C(O)CCc1cc2cc(Cl)ccc2n1S(=O)(=O)c1ccccn1 | 189 |
| COC(=O)C1CC(O)CN1C(=O)c1ccc(OC)c(OC)c1 (stereo unspecified) | 174 |
| CC(=O)N1CCN(CCNc2ncc3ncnc(Nc4ccc(F)c(Cl)c4)c3n2)CC1 | 196 to 198 |
| CN(C)C(=O)C(CCN1CCC(Nc2nc3cncnc3n2Cc2ccccn2)CC1)(c1ccccc1)c1ccccc1 | 192 |
| CC(C)c1n[nH]c2c(NCc3ccccc3)nc(NCCN)nc12 | 145 to 147 |
| O=Cc1c[nH]c2c1ccc1c3cc(-c4ccc(F)cc4)ccc3[nH]c12 | > 250 |
| CCC(CC)COc1c(C)nc(N)nc1N | 142 to 143 |

| SMILES | melting point [°C] |
| --- | --- |
| CCCc1c(OC)n2c3c(=O)n(C)c(=O)n(C)c3nc2n(Cc2ccccc2)c1=O | 199 to 201 |
| CC(C)OC(=O)C1=C2SCC(=CC(=O)Sc3ccccc3)N2CC1C (stereo unspecified) | 153 to 154 |
| COc1cc(C(C)(C)O)cc(Br)c1O | 107 to 112 |
| Cc1cc(O)nc(Oc2cc(C(F)(F)F)nn2C)c1 | 159 |
| O=C(O)c1ccc(-n2cc[nH]c2=S)cc1 | 194 to 196 |
| NC1=NC(c2cccc(-c3cccnc3F)c2)(c2ccc3c(c2)OCO3)C2=NCCCN12 (stereo unspecified) | 106 to 119 |
| CCCCCCn1c(-c2ccc(Cl)c(S(=O)(=O)N(C)C)c2)csc1=Nc1ccccc1 | 86 |
| COc1ccc2nc(N3CCNCC3)ccc2c1 | 95 to 97 |
| S=c1[nH]c2ccc(-c3cccc(Cl)c3)cc2n1Cc1ccccc1 | 211 to 212 |
| CC(=O)Nc1ccc(C(=S)N2CCCCC2)cc1 | 202 to 203 |
| Cc1noc(NS(=O)(=O)c2ccccc2-c2cc3ccccc3[nH]2)c1C | 172 to 175 |
| COC(=O)C=Cc1cc2c(nc1C)C(=Cc1ccccc1)CCC2 | 121 to 123 |
| COc1cccc(Cc2cnc(N[N+](=O)[O-])[nH]c2=O)c1 | 178 to 179 |
| CC(=O)NCCOc1ccc2c(-c3ccccc3F)noc2c1Cl | 154 to 155 |
| CC(=O)c1cc(NC(=O)OC(C)(C)C)ccc1O | 107 to 108 |
| COCCOc1ccc(C#CC2(O)CN3CCC2CC3)c(CO)c1 (stereo unspecified) | 98.5 to 100 |
| COc1cc(CCCCCCCCCCCO)ccc1O | 72 to 74 |
| Cc1cc2cnccc2s1 | 47 to 48 |

The remaining lines, values ahead:

| melting point [°C] | SMILES |
| --- | --- |
| 226 to 229 | CNC1Cc2ccc(C(=O)Cn3cnc4cc(-c5ccc(Cl)cc5)sc4c3=O)cc2C1 (stereo unspecified) |
| 205 to 209 | O=C(NCC1CCCO1)c1c[nH]c2ccccc2c1=O (stereo unspecified) |
| 80 to 87 | O=C(O)c1ccc(NCCCCCCCCCCc2ccccc2)cc1 |
| 174 to 176 | CC(=O)Nc1cc(C(C)(C)C)c(Cl)cc1CN(C)C1CCCCC1 |
| 202 to 203 | CNC(=O)c1cc(CN2C(=O)C3(COc4cc5c(cc43)OCO5)c3ccccc32)oc1C(F)(F)F (stereo unspecified) |
| 116 | CCSc1c(C(F)(F)F)nn(-c2c(Cl)cc(C(F)(F)F)cc2Cl)c1N |
| 116 to 119 | Cc1ccc(S(C)(=O)=O)c(C)c1Cl |
| 117 to 120 | CSC(=Nc1ccccc1C(=O)NC(C)C)NC(=O)c1ccccc1 |
| 126 | O=C(Nc1ccccc1C(F)(F)F)c1ccc([N+](=O)[O-])cc1 |
| 178 | CO[C@@H]1[C@@H](OC)[C@H](C)O[C@@H](ON=Cc2ccc(-c3cn(-c4ccc(OC(F)(F)F)cc4)cn3)cc2)[C@@H]1OC |
| 87 to 89 | COc1ccnc(CO)c1OC |
| 165 to 166 | CC(C)(C)c1ccc(N2CCOCC2)c(N)c1 |
| 122 to 124 | Cc1ccc(C=CC(C)N(O)C(N)=O)o1 (stereo unspecified) |
| 102 to 105 | Nc1ncc(Cl)nc1Br |
| 104 to 108 | CCc1ccc(Nc2c(F)c(F)cc(F)c2F)c(CC(=O)OC(C)(C)C(=O)O)c1 |
| 132 to 133 | O=C(CCCc1c[nH]c2ccccc12)NCc1ccccc1 |
| 94 to 97 | CCN1CSCN(CC)C1=S |

| melting point [°C] | SMILES |
| --- | --- |
| > 300 | CCOC(=O)C1=C(c2ccc(-n3c(C)nc4cnccc43)cc2)NC(=O)NC1c1ccccc1Cl (stereo unspecified) |
| 207 to 211 | CC(C)(C)OC(=O)N1CCC(c2nc3cc(-c4ccc(-n5cnnn5)cc4)ccc3o2)CC1 |
| 280 | Nc1cc(-n2cc(C(=O)O)c(=O)c3cc(F)c(N4CC(N)C4)c(Cl)c32)ncc1F |
| 236 to 240 | CC(C)C(c1cc(Cl)ccc1N1CCCCC1)C(C(N)=O)c1ccc(C(=O)O)cc1 (stereo unspecified) |
| 167 to 169 | CC(C)C(=O)OC[C@@]1(N=[N+]=[N-])O[C@@H](n2ccc(N)nc2=O)[C@@H](OC(=O)C(C)C)[C@@H]1OC(=O)C(C)C |
| 41 to 43 | Fc1ccc2[nH]ccc2c1Cl |
| 264 to 267 | O=C(Nc1cccc(S(=O)(=O)c2ccccn2)c1)C(O)(C(F)(F)F)C(F)(F)F |
| 154 to 156 | CCNC(=O)c1cc(NS(=O)(=O)c2ccc(I)cc2)ccc1Oc1cncc(Cl)c1 |
| 84.5 to 86.5 | C=C1c2ccccc2CC(N)c2ccccc21 (stereo unspecified) |
| 250 to 251 | Cc1nnc(-c2ccc3occ(-c4ccc(S(C)(=O)=O)cc4)c3n2)o1 |
| 99 to 101 | COC(=O)CCC(=O)c1ccc(-c2cccc(F)c2)cc1 |
| 125 | CC(C)(C)c1cccc(S(=O)(=O)Nc2ccc(C(F)(F)F)nc2I)c1 |
| 106 to 108 | CC(C)NC(=O)C(C)(C)C |
| 272 to 276 | O=c1[nH]c2ccc(S(=O)(=O)N(CCO)CCO)cc2[nH]c1=O |
| 134 | CCOC(=O)Cc1cc(O)c(C)cc1O |
| 84 | CCCc1ccc(OC)c(-c2csc(N)n2)c1 |
| 145 to 146 | CN(C)c1ccc(NC(=O)N(C[C@H]2CCC[C@H](CN(C(=O)Nc3ccc(N(C)C)cc3)C3CCCCC3)C2)C2CCCCC2)cc1 (relative stereo) |
